Source: US6864364B1, “MinK-related genes, formation of potassium channels and association with cardiac arrhythmia” (priority 1999, dated 2005)

What was measured:
HERG channels [1] = biological target: T1, HERG channels (Homo sapiens, UniProt Q12809); assay: cell-based
Description: (§1) Ionic conditions. Activation of channels formed only with HERG or containing both rMiRP1 and HERG subunits was assessed at various Ca^2+ concentrations by protocols 1 and 2. […] Initial characterizations were thus performed in a “low Ca^2+/high K^+” bath solution (in mM): 95 KCl, 5 NaCl, 1 MgCl2, 0.3 CaCl2 and 10 HEPES, pH 7.6 with NaOH. Other studies use solutions based on levels of ionized species found in human plasma (in mM): 4 KCl, 95 NaCl, 0.75 MgCl2, 1 CaCl2 and 10 HEPES, pH 7.6 with NaOH. For K^+ titrations in FIG. 4, NaCl and KCl were isotonically substituted. For cell-attached patches, pipette solution was (in mM): 100 KCl, 1 MgCl2, 0.3 CaCl2, 10 HEPES, pH 7.5 with KOH. For whole cell, pipettes contained (in mM): 100 KCl, 1 MgCl2, 10 HEPES, 2 EGTA, pH 7.5 with KOH.

Q9E-hMiRP1 channels = Q9E-hMiRP1 channels (Homo sapiens, UniProt Q12809); assay: Clarithromycin blockade of Q9E-hMiRP1/HERG channels in CHO cells; settings: for Ki: clarithromycin blockade
Description: Wild type hMiRP1/HERG channels and those formed with Q9E, M54T, I57T or T8A-hMiRP1 were compared by transient expression in CHO cells using 1 mM Ca^2+, 4 mM KCl solution.

[2] = biological target: wild type hMiRP1/HERG channels (Homo sapiens, UniProt Q12809); assay: Drug blockade of wild type hMiRP1/HERG channels expressed in CHO cells
Description: as §1

Native IKr channels = settings: ferret cardiac myocytes; Liu et al., 1996; read-out: Ki, E-4031, native IKr channels; cited from earlier work
HERG channels [3] = biological target: T1, HERG channels; assay: Ca2+ treated as blocking ion, HERG channels in oocytes, protocols 1 and 2; assay type: cell-based; set-up: expressed in transfected cells; host or cells: CHO cells; settings: −100 mV, read-out: apparent equilibrium inhibition constant (Ki)
Description: (§2) Raw data are shown without leak correction. […] All experiments were performed at 22° C.

[4] = biological target: T2, heteromeric channels containing rMiRP1 (Homo sapiens, UniProt Q12809); assay: Ca2+ treated as blocking ion, rMiRP1/HERG channels in oocytes, protocols 1 and 2; assay type: cell-based, rat; settings: rMiRP1/HERG vs HERG
T2 construct: expressed in transfected cells; host or cells: Xenopus laevis oocytes, cRNA injection
Description: as §2

Question: Which IC50 (HERG channels [1]) does the source give for CC[C@H]1OC(=O)[C@H](C)[C@@H](O[C@H]2C[C@@](C)(OC)[C@@H](O)[C@H](C)O2)[C@H](C)[C@@H](O[C@@H]2O[C@H](C)C[C@H](N(C)C)[C@H]2O)[C@](C)(OC)C[C@@H](C)C(=O)[C@H](C)[C@@H](O)[C@]1(C)O [clarithromycin] here?
Answer: Its IC50 is 750 ± 310 µM.

Question: And the “sensitivity to the drug relative to wild type channels” value (Q9E-hMiRP1 channels)?
Answer: Its value is 3 fold.

Question: What about the “shift of V1/2 to more positive potentials” value (Q9E-hMiRP1 channels) of the same molecule?
Answer: The value was 10 mV.

Question: What about the Ki (Q9E-hMiRP1 channels; CHO cells, 1 mM Ca2+, 4 mM KCl) of the same molecule?
Answer: Its Ki is 240 ± 40 µM.

Question: What about the Ki (Q9E-hMiRP1 channels; bath K+ reduced to 1 mM, n=6 cells) of the same molecule?
Answer: Its Ki is 200 ± 70 µM.

Question: And the IC50 [2]?
Answer: Its IC50 is 720 ± 180 µM.

Question: What about the Ki [2] of the same molecule?
Answer: The Ki was 590 ± 100 µM.

Question: And the “shift of V1/2 to more positive potentials” value ([2]; human, pH 7.6)?
Answer: Its value is 10 mV.

Question: With Cc1cccc(CCN2CCC(C(=O)c3ccc(NS(C)(=O)=O)cc3)CC2)n1 [E-4031] as the molecule, how does the Ki (Native IKr channels) read?
Answer: Its Ki is 0.0103 µM.

Question: With [Ca+2] [Ca^2+] as the molecule, how does the Ki (HERG channels [3]) read?
Answer: Its Ki is 290 ± 20 µM.

Question: And the “apparent Ki relative to HERG channels, fold lower” value [4]?
Answer: The value was ~3 fold.
